Consider six compounds from paper PMC9782315, “Site-Specific Albumin-Selective Ligation to Human Serum Albumin under Physiological Conditions” (Bioconjugate Chemistry, 2022).

Where two headings read alike, the source gives them in different places. Where a SMILES comes first, the peptide text is derived from it. [ ]: non-standard residue; d: D form. The star is where a group is joined. Biotin = O=C1N[C@H]2[C@H](CS[C@H]2CCCCC(=O)*)N1; Myristoyl = CCCCCCCCCCCCCC(=O)*; Aad = N[C@@H](CCCC(=O)O)C(=O)O; AEEA = NCCOCCOCC(=O)O

The target in data set [1] is T1, HSA (Homo sapiens, UniProt P02768).
T1 construct: purchased Sigma Aldrich
Description: Bio-layer interferometry (BLI) assay of non-covalent biotinylated RAEs with HSA. The data set is classed as binding. Particulars: human serum albumin (HSA). As for the experimental part:
S5. BLI Assay for Biotinylated Non-covalent Peptidomimetics.
Figure S6 Chemical Structure of Non-covalent Biotinylated RAEs (NCB-LYL1-4, NCB-LYLG) Biotinylated Non-covalent RAEs was synthesized by replacing acrylamide with acetyl group to study the intrinsic binding affinity of peptidomimetics using bio-layer interferometry (BLI) assay. For BLI assay, 1 μM non-covalent biotinylated RAEs (Figure S6) solution was prepared by kinetic buffer as the bait. As the fish, HSA solution at various concentration prepared by serial dilution using kinetic buffer, and the last well of dilution was filled with kinetic buffer as the reference well. Using 96-well plate, the biosensors were equilibrated in kinetic buffer for 60s. Then biosensors dipped ligands […]
wells, kinetic buffer wells, HSA well, kinetic buffer wells again for 120s, 60s, 480s, 960s as loading, baseline, association, and dissociation step, respectively. The data was subtracted by reference wells and processed by ForteBio Data Analysis software to derive the Kd value using steady-state approximation by 1:1 model (Figure S7-S8)
Figure S7 Bio-layered Interferometry for NCB-LYL1-4 and NCB -LYL -G
(1 picture or pasted object on this page, not shown here)
On the technique in general: BLI is a label-free optical method that tracks binding on a fibre tip over time.

For data set [2], the target named is T1, HSA. Kind of data set: Neutravidin pull-down assay for conjugation yield of biotinylated HSA. The class given is biochemical.
Description: Zeba spin desalting columns were pre-equilibrated by PBS buffer 3 times on
centrifugation (1500 x g, 1 minute). After conjugation, HSA-LYL conjugates passed
through the equilibrated Zeba desalting column. The flow through was collected and
further condensed by a 500 μL ultracentrifugation tube (MW cutoff = 3000) at 1 5000
rpm at 4 °C for 15 minutes. The resulting condensed solution was immediately
reconstituted by PBS (pH = 7.2), and the condensation process was repeated 2 times to
further remove biotinylated peptidomimetics. After that, the condensed HSA conjugate
(typically 20-50 μL) was diluted by 100 μL PBS for Neutravidin pull-down assay.
Using neutravidin-immobilized agarose, the NeutrAvidin pull-down assay intercepted
biotinylated proteins through biotin-avidin interaction. Therefore, the conjugation yield
can be determined by measuring the difference caused by NeutrAvidin pull -down.
The yield of conjugation is calculated based on the concentration difference of HSA
before and after passing through Neutrvidin agarose, which is calculated by following
𝑌𝑖𝑒𝑙𝑑 = 𝐶𝐻𝑆𝐴 𝑆𝑡𝑜𝑐𝑘−𝐶𝐻𝑆𝐴 𝐹𝑙𝑜𝑤−𝑡ℎ𝑟𝑜𝑢𝑔ℎ × 100% (1) […]
concentration was determined by Bicinchoninic acid (BCA) assay. […]
coulometric reactions were performed at 68°C for 30 minutes and the UV absorbance at
562 nm was measured by plate reader. […]
fluorescence intensity of corresponding Western blots.
was calculated without background subtraction .
[3] abbreviates: BLI, 1 μM non-covalent biotinylated RAE as bait, HSA serial dilution in kinetic buffer, association 480 s, dissociation 960 s, steady-state, 1:1 model, read-out: Kd.

T1 sequence (P02768 25-609): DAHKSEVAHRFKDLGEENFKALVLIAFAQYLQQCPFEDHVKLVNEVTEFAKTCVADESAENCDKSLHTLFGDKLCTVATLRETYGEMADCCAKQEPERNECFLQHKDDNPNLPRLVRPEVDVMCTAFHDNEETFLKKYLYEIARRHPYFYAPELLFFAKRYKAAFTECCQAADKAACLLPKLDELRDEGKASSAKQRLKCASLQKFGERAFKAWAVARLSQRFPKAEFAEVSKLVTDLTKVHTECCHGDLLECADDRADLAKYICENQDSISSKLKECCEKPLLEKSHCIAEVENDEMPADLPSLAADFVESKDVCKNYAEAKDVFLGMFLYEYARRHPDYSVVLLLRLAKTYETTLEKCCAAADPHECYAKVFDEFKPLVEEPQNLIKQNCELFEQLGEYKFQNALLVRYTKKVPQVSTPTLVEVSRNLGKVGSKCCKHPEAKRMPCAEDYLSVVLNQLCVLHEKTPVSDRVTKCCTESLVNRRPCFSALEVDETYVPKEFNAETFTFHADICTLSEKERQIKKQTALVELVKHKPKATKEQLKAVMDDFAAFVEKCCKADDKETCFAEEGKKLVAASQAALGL

As to `CCCCCCCCCCCCCC(=O)N[C@H](CCC(=O)O)C(=O)N[C@@H](CC(=O)O)C(=O)N[C@@H](CCCCNC(C)=O)C(=O)N[C@H](CO)C(=O)N[C@@H](CCCC(=O)O)C(=O)NCCOCCOCC(=O)NCCOCCOCC(=O)N[C@@H](CCCCNC(=O)CCCC[C@@H]1SC[C@@H]2NC(=O)N[C@@H]21)C(N)=O` [NCB-LYL1] (Myristoyl-[dE]DK(Ac)[dS][Aad][AEEA][AEEA]K(Biotin)-NH2), on HSA [1] (setting [3]), the Kd at 480 s turned out to be 1400 nM.
Same read-out and setting: with `CCCCCCCCCCCCCC(=O)N[C@H](C)C(=O)N[C@@H](CCCC(=O)O)C(=O)N[C@@H](CCCCNC(C)=O)C(=O)N[C@H](CCC(=O)O)C(=O)N[C@H](CO)C(=O)NCCOCCOCC(=O)NCCOCCOCC(=O)N[C@@H](CCCCNC(=O)CCCC[C@@H]1SC[C@@H]2NC(=O)N[C@@H]21)C(N)=O` [NCB-LYL4] (Myristoyl-[dA][Aad]K(Ac)[dE][dS][AEEA][AEEA]K(Biotin)-NH2) the figure was 2800 nM; with `CCCCCCCCCCCCCC(=O)N[C@H](CCC(=O)O)C(=O)N[C@@H](CCCC(=O)O)C(=O)N[C@@H](CCCCNC(C)=O)C(=O)N[C@@H](CC(=O)O)C(=O)N[C@@H](Cc1ccc(O)cc1)C(=O)NCCOCCOCC(=O)NCCOCCOCC(=O)N[C@@H](CCCCNC(=O)CCCC[C@@H]1SC[C@@H]2NC(=O)N[C@@H]21)C(N)=O` [NCB-LYL2] (Myristoyl-[dE][Aad]K(Ac)DY[AEEA][AEEA]K(Biotin)-NH2), 1000 nM.
With `O=C1N[C@H]2[C@H](CS[C@H]2CCCCC(=O)Oc2ccc([N+](=O)[O-])cc2)N1` [NBE, 4-Nitrophenyl biotin ester], the “Conjugation Yield” value on HSA [2] (10 μM HSA, 50 μM RAE or NBE, PBS pH 7.2, room temperature, 1 h, BCA read-out, 3 replications, no background subtraction) is 99.0%. For the same compound, the “uptake by immobilized neutravidin agarose (conjugation yield, text)” value at HSA [2] (initial condition, physiological pH 7.2, 1 h) is recorded as around 100%.
Regarding `CCCCCCCCCCCCCC(=O)N[C@H](CCC(=O)O)C(=O)N[C@@H](CCCCNC(C)=O)C(=O)N[C@@H](CCCC(=O)O)C(=O)N[C@H](CCC(=O)O)C(=O)NCCOCCOCC(=O)NCCOCCOCC(=O)N[C@@H](CCCCNC(=O)CCCC[C@@H]1SC[C@@H]2NC(=O)N[C@@H]21)C(N)=O` [NCB-LYL3] (Myristoyl-[dE]K(Ac)[Aad][dE][AEEA][AEEA]K(Biotin)-NH2), the Kd at 480 s on HSA [1] (setting [3]) is 2400 nM.
As to `CCCCCCCCCCCCCC(=O)NCC(=O)NCC(=O)N[C@@H](CCCCNC(C)=O)C(=O)NCC(=O)NCC(=O)NCCOCCOCC(=O)NCCOCCOCC(=O)N[C@@H](CCCCNC(=O)CCCC[C@@H]1SC[C@@H]2NC(=O)N[C@@H]21)C(N)=O` [NCB-LYLG] (Myristoyl-GGK(Ac)GG[AEEA][AEEA]K(Biotin)-NH2), the Kd at 480 s at HSA [1] (BLI assay, non-covalent (acetyl instead of acrylamide) biotinylated RAEs, read-out: Kd / binding affinity toward HSA) is 12000 nM.
